Assay results as given in PubChem BioAssay AID2060900 (Molecular Pharmacology Branch, DTP, NCI, 2025).

Tested on: 521955-158-R2-J5-PDC complex spheroids, viability
Assay: Anticancer human tumor 521955-158-R2-J5-PDC patient-derived pancreatic carcinoma cell line growth inhibition [RAS]
Details: for IC50: curve of first compound; for viability, T/C: stronger effect = lower value
Method in brief: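 Multi-cell-type spheroids: tumor cells plus HUVEC endothelial cells and mesenchymal stem cells. RAS-pathway inhibitors were combined with targeted agents, each dosed in half-log steps down from clinical Cmax, or from 10 microM when Cmax was unknown.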
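Note: compound exposure lasted seven days before the viability read.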
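Throughout, for viability, T/C: spheroids also contain HUVEC endothelial cells and mesenchymal stem cells as stroma.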

SMILES: C=CC(=O)Nc1cc(Nc2nccc(-c3cn(C)c4ccccc34)n2)c(OC)cc1N(C)CCN(C)C + C=CC(=O)N1CCN(c2nc(OCC3CCCN3C)nc3c(F)c(-c4nc(N)cc(C)c4C(F)(F)F)c(Cl)cc23)C(C)C1
- IC50 (second compound 0.00316 µM): 970 nM
- IC50 (second compound 0.01 µM): 898 nM
- IC50 (second compound 0.0316 µM): > 1000 nM
- IC50 (second compound 0.1 µM): 757 nM
- IC50 (second compound 0.316 µM): 636 nM
- IC50 (second compound 1 µM): 757 nM
- viability, T/C (second compound 0.00316 µM, first compound 0.00316 µM): 106%
- viability, T/C (second compound 0.00316 µM, first compound 0.01 µM): 78.6%
- viability, T/C (second compound 0.00316 µM, first compound 0.0316 µM): 90.5%
- viability, T/C (second compound 0.00316 µM, first compound 0.1 µM): 81.2%
- viability, T/C (second compound 0.00316 µM, first compound 0.316 µM): 86.4%
- viability, T/C (second compound 0.00316 µM, first compound 1 µM): 48.9%
- viability, T/C (second compound 0.01 µM, first compound 0.00316 µM): 87.8%
- viability, T/C (second compound 0.01 µM, first compound 0.01 µM): 63.4%
- viability, T/C (second compound 0.01 µM, first compound 0.0316 µM): 77.8%
- viability, T/C (second compound 0.01 µM, first compound 0.1 µM): 108%
- viability, T/C (second compound 0.01 µM, first compound 0.316 µM): 74.1%
- viability, T/C (second compound 0.01 µM, first compound 1 µM): 47.5%
- viability, T/C (second compound 0.0316 µM, first compound 0.00316 µM): 80.1%
- viability, T/C (second compound 0.0316 µM, first compound 0.01 µM): 63.5%
- viability, T/C (second compound 0.0316 µM, first compound 0.0316 µM): 96.5%
- viability, T/C (second compound 0.0316 µM, first compound 0.1 µM): 107%
- viability, T/C (second compound 0.0316 µM, first compound 0.316 µM): 68.1%
- viability, T/C (second compound 0.0316 µM, first compound 1 µM): 50.4%
- viability, T/C (second compound 0.1 µM, first compound 0.00316 µM): 68.1%
- viability, T/C (second compound 0.1 µM, first compound 0.01 µM): 81.4%
- viability, T/C (second compound 0.1 µM, first compound 0.0316 µM): 74.8%
- viability, T/C (second compound 0.1 µM, first compound 0.1 µM): 85.3%
- viability, T/C (second compound 0.1 µM, first compound 0.316 µM): 73.6%
- viability, T/C (second compound 0.1 µM, first compound 1 µM): 42.2%
- viability, T/C (second compound 0.316 µM, first compound 0.00316 µM): 121%
- viability, T/C (second compound 0.316 µM, first compound 0.01 µM): 82.2%
- viability, T/C (second compound 0.316 µM, first compound 0.0316 µM): 95.9%
- viability, T/C (second compound 0.316 µM, first compound 0.1 µM): 70.1%
- viability, T/C (second compound 0.316 µM, first compound 0.316 µM): 67.8%
- viability, T/C (second compound 0.316 µM, first compound 1 µM): 39%
- viability, T/C (second compound 1 µM, first compound 0.00316 µM): 106%
- viability, T/C (second compound 1 µM, first compound 0.01 µM): 72.8%
- viability, T/C (second compound 1 µM, first compound 0.0316 µM): 78.7%
- viability, T/C (second compound 1 µM, first compound 0.1 µM): 73.9%
- viability, T/C (second compound 1 µM, first compound 0.316 µM): 64%
- viability, T/C (second compound 1 µM, first compound 1 µM): 42.1%

SMILES: NC1c2ccccc2OC12CCN(c1cnc3c(N4CCCc5ncccc54)n[nH]c3n1)CC2 (centres undefined) + CCn1c(-c2cccnc2C(C)OC)c2c3cc(ccc31)N1CCOC(CC(NC(=O)C(C(C)C)N(C)C(=O)C3(F)CCN(C(=O)C#CC(C)(C)N(C)C)CC3)C(=O)N3CCCC(N3)C(=O)OCC(C)(C)C2)C1
- IC50 (second compound 0.000949 µM): 4500 nM
- IC50 (second compound 0.003 µM): > 10000 nM
- IC50 (second compound 0.00949 µM): 987 nM
- IC50 (second compound 0.03 µM): > 10000 nM
- IC50 (second compound 0.0949 µM): 1200 nM
- IC50 (second compound 0.3 µM): 129 nM
- viability, T/C (second compound 0.000949 µM, first compound 0.0316 µM): 62.7%
- viability, T/C (second compound 0.000949 µM, first compound 0.1 µM): 61.4%
- viability, T/C (second compound 0.000949 µM, first compound 0.316 µM): 53.5%
- viability, T/C (second compound 0.000949 µM, first compound 1 µM): 52.3%
- viability, T/C (second compound 0.000949 µM, first compound 3.16 µM): 50.2%
- viability, T/C (second compound 0.000949 µM, first compound 10 µM): 50%
- viability, T/C (second compound 0.003 µM, first compound 0.0316 µM): 64%
- viability, T/C (second compound 0.003 µM, first compound 0.1 µM): 51%
- viability, T/C (second compound 0.003 µM, first compound 0.316 µM): 58.8%
- viability, T/C (second compound 0.003 µM, first compound 1 µM): 55.4%
- viability, T/C (second compound 0.003 µM, first compound 3.16 µM): 52.7%
- viability, T/C (second compound 0.003 µM, first compound 10 µM): 49.8%
- viability, T/C (second compound 0.00949 µM, first compound 0.0316 µM): 53.7%
- viability, T/C (second compound 0.00949 µM, first compound 0.1 µM): 48.1%
- viability, T/C (second compound 0.00949 µM, first compound 0.316 µM): 51.8%
- viability, T/C (second compound 0.00949 µM, first compound 1 µM): 52.5%
- viability, T/C (second compound 0.00949 µM, first compound 3.16 µM): 53.2%
- viability, T/C (second compound 0.00949 µM, first compound 10 µM): 43.6%
- viability, T/C (second compound 0.03 µM, first compound 0.0316 µM): 60.3%
- viability, T/C (second compound 0.03 µM, first compound 0.1 µM): 56.8%
- viability, T/C (second compound 0.03 µM, first compound 0.316 µM): 44.2%
- viability, T/C (second compound 0.03 µM, first compound 1 µM): 51.3%
- viability, T/C (second compound 0.03 µM, first compound 3.16 µM): 58.9%
- viability, T/C (second compound 0.03 µM, first compound 10 µM): 47.1%
- viability, T/C (second compound 0.0949 µM, first compound 0.0316 µM): 52.9%
- viability, T/C (second compound 0.0949 µM, first compound 0.1 µM): 54.4%
- viability, T/C (second compound 0.0949 µM, first compound 0.316 µM): 43.3%
- viability, T/C (second compound 0.0949 µM, first compound 1 µM): 49.7%
- viability, T/C (second compound 0.0949 µM, first compound 3.16 µM): 56.5%
- viability, T/C (second compound 0.0949 µM, first compound 10 µM): 45.7%
- viability, T/C (second compound 0.3 µM, first compound 0.0316 µM): 51.3%
- viability, T/C (second compound 0.3 µM, first compound 0.1 µM): 46.3%
- viability, T/C (second compound 0.3 µM, first compound 0.316 µM): 51.9%
- viability, T/C (second compound 0.3 µM, first compound 1 µM): 51.3%
- viability, T/C (second compound 0.3 µM, first compound 3.16 µM): 49.5%
- viability, T/C (second compound 0.3 µM, first compound 10 µM): 42.9%
